Read-outs that look alike come from different tables or passages of the source.
Legend:
[1] = system: islets, glucose-stimulated insulin secretion; test: Islet perifusion GSIS assay, islets from treated T2D mice; assay type: in vivo
Protocol: For patch-clamp studies involving primary mouse cells, the mice were anesthesized by injecting Avertin (0.0125 g/ml in H2O) followed by cervical dislocation. […] Perifusion buffer contained (in mM): 120 NaCl, 24 NaHCO3, 4.8 KCl, 2.5 CaCl, 1.2 MgSO4, 10 HEPES, 2.8 glucose, 27.2 mannitol, 0.25% w/v bovine serum albumin, pH 7.4 with NaOH (300 mOsm/kg). Perifusion buffer kept at 37° C. was circulated at 120 μI/min After 48 min of washing with 2.8 mM glucose solution for stabilization, islets were stimulated with the following sequence: 16 min of 16.7 mM glucose, 40 min of 2.8 mM glucose, 10 min of 30 mM KCl, and 12 min of 2.8 mM glucose. Osmolarity was matched by adjusting mannitol concentration when preparing solution containing 16.7 mM glucose. Serial samples were collected either every 1 or 2 min into 96 wells kept at 4° C. Insulin concentrations were further determined using commercially available ELISA kit (Mercodia). The area under the curve (AUC) for the high-glucose induced insulin release was calculated for time points between 50 to 74/84 min. At the completion of the experiments, islets were further lysed by addition of RIPA buffer and the amount of insulin was detected by ELISA.

SWELL1 protein = SWELL1 protein (Mus musculus, UniProt Q80WG5); test: Glucolipotoxic stress (palmitate + glucose) SWELL1 protein in 3T3-F442A adipocytes; conditions: 10 μM 96 h, 1 mM palmitate + 25 mM glucose
[2] = In vivo pharmacokinetics in mice; conditions: for bioavailability: male, C57/BL6, mouse, plasma, po, 5 mg/kg, AUCp.o./AUCi.v.; for AUCinf / Cmax / T-half: single dose 5 mg/kg
Protocol: Male C57/BL6 mice were used in the study and assessed for a single dose (5 mg/kg) administration. The compounds were prepared in Cremaphor for i.p. and p.o dose routes and in 5% ethanol, 10% Tween-20 and water mix for i.v. route at a final concentration of 1 mg/ml. […] The blood samples were collected in tubes with K2 EDTA anticoagulant and further processed to collect plasma by centrifugation at 3500 rpm at 5° C. for 10 min Samples were further processed in LC/MS to determine the concentration of the compounds. Non-compartmental analysis was performed to obtain the PK parameters using the PKPlus software package (Simulation Plus). The area under the plasma concentration-time curve (AUCint) is calculated from time 0 to infinity where the Cmax is the maximal concentration achieved in plasma and t112 is the terminal elimination half-life. Oral bioavailability was calculated as AUCorailAUC1v*100.

[3] = Caco-2 permeability assay; assay type: in vitro ADME; conditions: human, Caco-2; for Papp at 2 h: apparent permeability, read-out: Caco-2 10^−6 cm/s
Protocol: (§1) In vitro ADMET studies were performed at Charles River Laboratory as outlined below. For the Caco-2 permeability assay, the cells were cultured (DMEM, 10% FBS, 1% L-Glutamax and 1% PenStrep) for 21 days. HBSS was used as the transport buffer and the TEER measurements were taken before the start of the assay. Compounds were added apical side to determine apical to basolateral transport (A-B) and basal side to determine basolateral to apical transport (B-A). Samples (10 μL) were collected at time 0 and 2 h and diluted (5×) with transport buffer. After the quenching reaction, the samples were further diluted in MilliQ water for bioanalysis. The TEER measurements were carried out at the end of the assay and wells with significant decrease in post-assay TEER values were not included in the data and repeated again. The analyte levels (peak area ratios) were measured on apical (A) and basolateral (B) sides at To and T2h-A-B and B-A fluxes were calculated averaging 3 individual measurements. Apparent permeability (Papp, cm/sec) was calculated as dQ (flux)/(dt*area*concentration). The efflux ratio was calculated by Papp(B-A)/[…]. For the microsomal metabolic stability assay, the microsomes were diluted in potassium phosphate buffer to maintain at a final concentration of 0.5 mg/ml in the assay procedure. The compounds were diluted 10-fold in acetonitrile and incubated with the microsomes at 37° C. with gentle shaking. Samples were collected at different timepoints and quenched. The samples were mixed by vortexing for 10 min and centrifuged at 3100 rpm for 10 min at 4° C. The supernatant was diluted in water and further analyzed in LC/MS autosampler. Half-life (T1/2) was calculated by the formula 0.692/slope where slope is ln(% remaining relative to Tzero vs time). Intrinsic clearance was calculated using the (CLn1)=T112*1/initial concentration*mg prep/g liver*g liver/kg body weight. For the cytochrome P450 inhibition assay, the cofactors and substrate were mixed in Potassium phosphate buffer. A stock concentration of 10 mM compounds (in DMSO) were diluted 5-fold in acetonitrile and mixed with cofactor/substrate mixture (2×). Human liver microsomes were diluted in Potassium phosphate buffer for a final concentration (2×) of 0.2 mg/ml and the reaction was initiated by mixing the microsomes with the compound/cofactor/substrate mixture at 37° C. with gentle shaking. Samples were collected at To and T30 min timepoints and quenched. The samples were then centrifuged at 3100 rpm for 5 min at 5-10° C. and the supernatant was diluted in water and further analyzed in LC/MS autosampler. % inhibition was calculated (using peak area ratios) relative to zero inhibition (full activity) and no activity (full inhibition).

Caco-2 cell monolayer = test: Caco-2 permeability assay; assay type: in vitro ADME
Protocol: as §1

Structure (SMILES)	Prevention of palmitate/glucose-induced SWELL1 protein reduction (SWELL1 protein)	bioavailability [2] [%]	AUCinf ([2]; Intraperitoneal) [ng·h/mL]	Cmax ([2]; Intraperitoneal) [ng/mL]	T-half ([2]; Intraperitoneal) [h]	AUCinf ([2]; Intravenous) [ng·h/mL]	Cmax ([2]; Intravenous) [ng/mL]	T-half ([2]; Intravenous) [h]	AUCinf ([2]; Oral) [ng·h/mL]	Cmax ([2]; Oral) [ng/mL]	T-half ([2]; Oral) [h]	Papp at 2 h [3] [×10⁻⁶ cm/s]	Caco-2 permeability ranking (Caco-2 cell monolayer)	other results
CCCCC1(C2CCCC2)Cc2cc(OCCCCCC(=O)O)c(Cl)c(Cl)c2C1=O (stereo not shown) [SN-406, 6-((2-butyl-6,7-dichloro-2-cyclopentyl-1-oxo-2,3-dihydro-1H-inden-5-yl)oxy)hexanoic acid]	entirely prevented	48	18180	4300	1.809	6532	15130	0.7689	3131	660.7	2.058	1.93	Higher	Insulin secretion in perifusion GSIS ([1]; islets of HFD T2D mice, compared to SN071): significantly augmented; Plasma concentrations relative to ICl,SWELL inhibitory concentrations ([2]; 5 mg/kg i.p. dosing): transiently approach; Plasma concentrations relative to ICl,SWELL inhibitory concentrations ([2]; 5 mg/kg p.o. dosing): remain well below; efflux ratio at 2 h ([3]; read-out: Caco-2 efflux ratio B-A/A-B): 1.58; Caco-2 efflux ranking (Caco-2 cell monolayer): Not
CCCCC1(C2CCCC2)Cc2cc(OCCCC(=O)O)c(Cl)c(Cl)c2C1=O (stereo not shown) [SN-401, 4-((2-butyl-6,7-dichloro-2-cyclopentyl-1-oxo-2,3-dihydro-1H-inden-5-yl)oxy)butanoic acid]	entirely prevented	79	23030	4367	2.056	5958	5443	1.428	4682	781	2.585	8.24	Higher	Perifusion GSIS from isolated islets ([1]; HFD mice, 21 weeks HFD): significantly improved; Caco-2 efflux ranking (Caco-2 cell monolayer; Caco-2): Not; Caco-2 cell monolayer permeability (Caco-2 cell monolayer; in words): good

— patent US20220242812A1, “SWELL1-LRRC8 COMPLEX MODULATORS” (Washington University, priority 2019, published 2022)
